Reference: US12448394B2, “Heterocyclic pyrazole derivatives as type III receptor tyrosine kinase inhibitors” (DEVELOPMENT CENTER FOR BIOTECHNOLOGY, priority 2019, dated 2025)
Changes are numbered by the printed parent chain.

What was measured:
[1] = test system: MV4-11 human acute myeloid leukemia cell with FLT3-ITD mutation; experiment: MV4-11 cell proliferation assay (CellTiter 96); type: cell-based; settings: Homo sapiens, MV4-11, 72 h, MV4-11 cells, 72 hours treatment, CellTiter96; read-out: anti-proliferation activity MV4-11 (FLT3-ITD), IC50 ranking
Protocol: (§1) Inhibitions of cell growths by compounds were measured using CellTiter™-96 assay. The cytotoxicities of compounds of the invention were evaluated in cell line panels with different signaling pathway dependencies, including MV4-11 human acute myeloid leukemia cell with FLT3-ITD mutation, Molm-14 human acute myeloid leukemia cell with FLT3-ITD mutation, THP-1 human acute monocytic leukemia cell with NRAS G12D mutation, A375 melanoma cell with BRAF V600E mutation, and HCC827 NSCLC cell with EGFR exon 19 deletion mutation.
The compounds disclosed herein were tested in MV4-11 cell proliferation assay to determine their cellular potencies against FLT3 signal pathway dependent cell growths. MV4-11 cells are human acute myeloid leukemia (AML) cells harboring ligand-independent FLT3-ITD activating mutation, which renders the abnormal proliferation of AML cells FLT3 signaling pathway dependent. Inhibition of FLT3 kinase activity will result in reduced growths and/or cell deaths. MV4-11 cells (catalog #CRL-9591) were obtained from the American Type Culture Collection (ATCC, Manassas, VA). Briefly, cells were grown in IMDM medium supplemented with 10% heat inactivated fetal bovine serum and incubated at 37° C. in 5% CO2 atmosphere. Cells were allowed to expand until reaching saturation, at which point they were sub-cultured or harvested for assay use.
(§2) MV4-11, Molm-14, THP-1, A375, and HCC827 cells were seeded into 96-well plates at 6500, 25000, 5000, 2000 and 8000 cells/well, respectively, and incubated at 37° C., 5% CO2 overnight. Then, these seeded cells were treated with increasing concentrations of the test compounds and incubated for another 72 hours. At the end of the incubation, CellTiter96® AQueous One Solution Reagent (Promega, […]) was added and incubated for the additional 2˜4 hours. Cell viability was determined by measuring absorbance at 490 nm using EMax® microplate reader (Molecular Devices, San Jose, CA, USA).

[2] = test system: Molm-14 human acute myeloid leukemia cell with FLT3-ITD mutation; experiment: Molm-14 cell proliferation assay (CellTiter 96); type: cell-based; settings: Homo sapiens; Molm-14 cells, 72 hours treatment, CellTiter96; read-out: anti-proliferation activity Molm-14 (FLT3-ITD), IC50 ranking
Protocol: as §1
The compounds disclosed herein were tested in Molm-14 cell proliferation assay to determine their cellular potencies against FLT3 signal pathway dependent cell growths. Molm-14 cells are human acute myeloid leukemia (AML) cells harboring ligand-independent FLT3-ITD activating mutation, which renders the abnormal proliferation of the AML cells FLT3 signaling pathway dependent. Inhibition of FLT3 kinase activity will result in reduced growths and/or cell deaths. […] Briefly, cells were grown in RPMI 1640 medium supplemented with 10% heat inactivated fetal bovine serum and incubated at 37° C. in 5% CO2 atmosphere. Cells were allowed to expand until reaching saturation, at which point they were sub-cultured or harvested for assay use.
as §2

[3] = test system: THP-1 human acute monocytic leukemia cell with NRAS G12D mutation; experiment: THP-1 cell proliferation assay (counter screen); type: cell-based; settings: Homo sapiens, THP-1 cells, 72 hours treatment, CellTiter96, read-out: anti-proliferation activity THP-1 NRAS N12D, IC50 ranking
Protocol: as §1
THP-1 cells are human acute monocytic leukemia cells with NRAS G12D mutation, which renders the cell growth independent of class III RTKs signaling. THP-1 cells (catalog #TIB-202) were obtained from the ATCC. Briefly, cells were grown in RPMI 1640 medium supplemented with 10% heat inactivated fetal bovine serum and 0.05 mM 2-mercaptoethanol and incubated at 37° C. in 5% CO2 atmosphere. Cells were allowed to expand until reaching saturation, at which point they were sub-cultured or harvested for assay use.
as §2

[4] = test system: A375 melanoma cell with BRAF V600E mutation; experiment: A375 cell proliferation assay (counter screen); type: cell-based, human; settings: Homo sapiens, A-375, A375 cells, 72 hours treatment, CellTiter96, read-out: anti-proliferation activity A375 BRAF V600E, IC50 ranking
Protocol: as §1
(§3) A375 cells are melanoma cells encoding BRFA V600E mutation, which renders the cell growth dependent on BRAF signaling instead of class III RTKs signaling. A375 cells (catalog #CRL-1619) were obtained from the ATCC. Briefly, cells were cultured in DMEM containing 10% FBS and incubated at 37° C. in 5% CO2 atmosphere. Cells were allowed to expand until reaching saturation, at which point they were sub-cultured or harvested for assay use.
as §2

[5] = test system: HCC827 NSCLC cell with EGFR exon 19 deletion mutation; experiment: HCC827 cell proliferation assay (counter screen); type: cell-based, human; settings: Homo sapiens, HCC827 cells, 72 hours treatment, CellTiter96, read-out: anti-proliferation activity HCC827 EGFR Exon19 del, IC50 ranking
Protocol: as §1
as §3, with “HCC827” for “A375”, “non-small cell lung carcinoma (NSCLC)” for “melanoma”, “EGFR exon 19 deletion” for “BRFA V600E”, “EGFR” for “BRAF”, “#CRL-2868)” for “#CRL-1619)”, “RPMI1640 medium supplemented with” for “DMEM containing”
as §2

FLT3 kinase = target: T1, FLT3 kinase (Homo sapiens, UniProt P36888); experiment: FLT3 kinase assay (AlphaScreen); type: biochemical; settings: mean; read-out: Biochemical activity (Mean IC50, nM) FLT3
T1 construct: purchased SignalChem
T1 sequence (P36888 27-993): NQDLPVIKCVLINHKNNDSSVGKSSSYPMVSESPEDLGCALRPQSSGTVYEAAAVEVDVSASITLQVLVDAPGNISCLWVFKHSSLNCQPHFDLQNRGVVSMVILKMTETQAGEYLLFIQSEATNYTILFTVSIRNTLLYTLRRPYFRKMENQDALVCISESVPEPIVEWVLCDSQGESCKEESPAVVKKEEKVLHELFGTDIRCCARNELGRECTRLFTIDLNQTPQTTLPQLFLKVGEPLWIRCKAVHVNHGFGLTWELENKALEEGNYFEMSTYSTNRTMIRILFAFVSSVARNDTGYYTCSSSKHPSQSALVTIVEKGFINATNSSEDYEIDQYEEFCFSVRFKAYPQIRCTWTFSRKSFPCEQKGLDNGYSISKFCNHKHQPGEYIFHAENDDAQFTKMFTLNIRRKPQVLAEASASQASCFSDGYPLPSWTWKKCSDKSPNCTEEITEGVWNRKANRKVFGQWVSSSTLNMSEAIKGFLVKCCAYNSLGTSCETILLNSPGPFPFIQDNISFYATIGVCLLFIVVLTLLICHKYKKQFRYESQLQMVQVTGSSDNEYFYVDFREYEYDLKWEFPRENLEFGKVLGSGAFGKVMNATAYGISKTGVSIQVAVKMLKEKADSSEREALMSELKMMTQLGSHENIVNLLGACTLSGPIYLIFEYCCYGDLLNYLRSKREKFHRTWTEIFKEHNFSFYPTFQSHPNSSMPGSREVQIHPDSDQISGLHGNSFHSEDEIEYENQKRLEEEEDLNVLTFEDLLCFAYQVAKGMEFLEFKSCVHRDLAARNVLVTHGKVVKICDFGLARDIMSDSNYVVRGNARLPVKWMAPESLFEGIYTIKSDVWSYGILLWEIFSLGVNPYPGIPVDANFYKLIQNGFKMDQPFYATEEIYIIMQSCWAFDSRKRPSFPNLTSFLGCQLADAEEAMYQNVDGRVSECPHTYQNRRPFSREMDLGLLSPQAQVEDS
Protocol: (§4) Inhibition of FLT3 kinase activity by a test compound disclosed herein was estimated by AlphaScreen (PerkinElmer, Akron, Ohio, USA). Standard assay conditions were 1.5 ng of recombinant FLT3 kinase (SignalChem, Richmond, BC, Canada) with 6 ng Biotin-conjugated Poly-(Glu 4: Tyr 1) (Cisbio, Bedford, MA, USA) in the assay buffer (10 μM ATP, 10 mM MOPs, pH7.0, 0.21 mM EDTA, 0.5% glycerol, 1 mg/mL BSA, 0.01% 2-mercaptoethanol, 0.001% Brij35, 10 mM MgCl2) in a final volume of 25 μL. Reactions were incubated at 30° C. for 30 min and stopped by adding 5 μL of 50 mM EDTA. Analysis of resulting product using an AlphaScreen kit and counted with Enspire Alpha (PerkinElmer, Waltham, MA, USA). […] The IC50 values of inhibitors were determined after carrying out assays with each compound at serially diluted concentrations in duplication. The results were analyzed using linear regression software (GraphPad Prism 5; GraphPad Software Inc.)

FLT3-D835Y mutant kinase = target: T2, FLT3-D835Y mutant kinase (Homo sapiens, UniProt P36888, D835Y); experiment: FLT3-D835Y mutant kinase assay (AlphaScreen); type: biochemical; settings: mean; read-out: Biochemical activity (Mean IC50, nM) FLT3-D835Y
T2 construct: purchased SignalChem
T2 sequence (P36888 27-993 D835Y): T1 sequence (P36888 27-993) with D809Y
Protocol: as §4, with “FLT3-D835Y mutant” for “FLT3”, “(PerkinElmer).” for “(PerkinElmer, Akron, Ohio, USA).”, “1” for “1.5”, “(SignalChem)” for “(SignalChem, Richmond, BC, Canada)”, “(Cisbio)” for “(Cisbio, Bedford, MA, USA)”, “(PerkinElmer).” for “(PerkinElmer, Waltham, MA, USA).”

Row | IC50 [1] [nM] | IC50 [2] [nM] | IC50 (FLT3 kinase) [nM] | IC50 (FLT3-D835Y mutant kinase) [nM] | Structure (SMILES) | IC50 [3] [nM] | IC50 [4] [nM] | IC50 [5] [nM]
1 | < 30 | < 30 |  |  | Cn1ncc2ccc(-c3n[nH]c4c3Cc3sc(-c5ccc(CN6CCOCC6)cn5)cc3-4)cc21 [Compound 55, 4-((6-(3-(1-methyl-1H-indazol-6-yl)-1,4-dihydro-thieno[2′,3′:4,5]cyclopenta [1,2-c]pyrazol-6-yl)pyridin-3-yl)methyl) morpholine] | > 10000 | > 10000 | > 10000
2 |  |  | 8 | 15 | COc1ccc(-c2n[nH]c3c2Cc2sc(-c4ccc(N)nc4)cc2-3)cc1 [Example H, 5-(3-(4-methoxyphenyl)-1,4-dihydrothieno[2′,3′:4,5]cyclopenta[1,2-c]pyrazol-6-yl)pyridin-2-amine, reference compound] |  |  | 
